{"source": "patent US20250375461A1", "about": "“IDENTIFICATION OF A NEW POTENT INHIBITOR OF MYCOBACTERIAL GROWTH” (priority 2024, published 2025)", "key": {"E. coli WO0153 [1]": {"system": "E. coli WO0153", "assay": "Microscopy of E. coli WO0153 in presence of BI.aada", "assay_type": "cell-based", "description": "(§1) In FIG. 1, […]=0.5×MIC. […] Magnification is 1000×. The compound BI.aada also has an MIC of […] against the gram-negative E. coli WO0153, which has a leaky outer membrane, and no activity against E. coli K12, which has a normal membrane. […] The stubby phenotype is similar to that observed with NAG-thiazoline (lytic transglycosylase inhibitor) with E. coli. In FIG. 3, purple: no growth; pink: bacterial growth; and MIC determined as lowest concentration that inhibits growth: 50 μM."}, "M. smegmatis [2]": {"system": "M. smegmatis", "assay": "Microscopy of M. smegmatis in presence of BI.aada", "assay_type": "cell-based", "description": "as §1"}, "E. coli K12": {"system": "E. coli K12", "assay": "Activity against E. coli K12 (normal membrane)", "assay_type": "cell-based", "description": "as §1"}, "E. coli WO0153 [3]": {"system": "E. coli WO0153", "assay": "MIC assay: E. coli WO0153 (leaky outer membrane)", "assay_type": "cell-based", "description": "as §1"}, "M. smegmatis [4]": {"system": "M. smegmatis", "assay": "MIC assay: M. smegmatis with BI.aada", "assay_type": "cell-based", "conditions": "Mycolicibacterium smegmatis", "description": "FIG. 4, FIG. 5, and FIG. 6 show enlarged views of MIC Assay: M. smegmatis with BI.aada.\nas §1"}, "M. avium": {"system": "M. avium", "assay": "MIC against M. avium", "assay_type": "cell-based", "conditions": "Mycobacterium avium"}, "M. absescus": {"system": "M. absescus", "assay": "MIC against M. absescus", "assay_type": "cell-based"}, "B. cereus": {"system": "B. cereus", "assay": "Standard bactericidal assay (colony counts), B. cereus", "assay_type": "cell-based", "description": "The library was initially screened against all test organisms at a single concentration (250 μM) (ESIt). This high initial concentration was chosen as many soluble derivatives of PG bind to bacterial autolysins with KD values in the high micromolar range.^53 Compounds showing at least 40% inhibition in growth were selected for further investigation. […] We identified two compounds that inhibited the growth of Bacillus cereus and Bacillus subtilis in the micromolar range (FIG. 9). […] Both BI.abcb and BI.fgba were screened in a standard bactericidal assay.^54 Briefly, B. subtilis and B. cereus were grown in either the absence or presence of inhibitor (at the MIC) for 4 hours.\nThe cells were harvested, washed and subject to serial dilution prior to plating on nutrient broth agar."}, "Bacillus cereus": {"system": "Bacillus cereus", "assay": "Resazurin microtiter whole cell assay, MIC, B. cereus", "assay_type": "cell-based", "description": "Each Ugi reaction was carried out using either propargyl amine or propiolic acid as the alkyne component to provide either propionamides or N-propargyl amides as the diamide products. While Ugi-reactions can sometimes require prolonged reaction times, we identified conditions that reduced the reaction time to 4-5 hours at elevated temperature and in many cases proceeded to completion, enabling use of the Ugi product directly in the next reaction.^49-51 The Ugi-derived terminal alkynes were then subjected to a copper accelerated azide-alkyne coupling reaction using a redox couple of copper powder and copper (II) sulfate. To further facilitate synthesis of the library we simplified the purification of the compounds by using the alkyne building blocks in excess for the copper accelerated azide-alkyne coupling reaction. This ensured complete consumption of the azido sugar 1, and the unreacted alkyne residue could be easily removed using a silica plug after the reaction, eliminating the need for column chromatography. Removal of trace copper salts from the reaction was carried out by incubating the reaction solution with a commercially available copper chelating resin prior to purification using the silica plug. The library of GNTs was screened for its ability to inhibit the growth of a panel of different Gram-positive bacteria. […]"}, "E. coli": {"system": "E. coli", "conditions": "NAG thiazoline treatment; cited from earlier work"}, "Gram-negative bacteria": {"system": "Gram-negative bacteria", "conditions": "cited from earlier work"}}, "note": "Read-outs that look alike come from different tables or passages of the source.", "data": [{"smiles": "CCCCNC(=O)C(C(C)C)N(CC(c1ccccc1)c1ccccc1)C(=O)c1cn(C2OC(CO)[C@@H](O)C(O)C2NC(C)=O)nn1", "note": "(stereo partly drawn) [BI.aada]", "values": [{"measurement": "cell morphology (microscopy)", "setting": "E. coli WO0153 [1]; E. coli WO0153 in presence of BI.aada", "value": "altered cell morphology"}, {"measurement": "phenotype in FIG. 2", "setting": "E. coli WO0153 [1]; sub-MIC treated E. coli WO153, 50 µM BI.aada, compared to control", "value": "clumping phenotype"}, {"measurement": "phenotype in FIG. 1", "setting": "M. smegmatis [2]; 25 nM=0.5×MIC, magnification 1000×", "value": "aberrant division occurring along side wall"}, {"measurement": "cell morphology (microscopy)", "setting": "M. smegmatis [2]; M. smegmatis in presence of BI.aada", "value": "altered cell morphology"}, {"measurement": "activity against E. coli K12", "setting": "E. coli K12", "value": "no activity"}, {"measurement": "MIC", "setting": "E. coli WO0153 [3]; Escherichia coli, WO0153, read-out: MIC determined as lowest concentration that inhibits growth", "value": 50, "unit": "µM"}, {"measurement": "MIC", "setting": "E. coli WO0153 [3]; Escherichia coli, E. coli WO0153, leaky outer membrane, read-out: MIC", "value": 70, "unit": "µM"}, {"measurement": "MIC", "setting": "E. coli WO0153 [3]; Gram negative E. coli WO0153, Feature 16", "value": 70, "unit": "µM"}, {"measurement": "MIC", "setting": "M. smegmatis [4]", "value": 0.05, "unit": "µM"}, {"measurement": "MIC", "setting": "M. avium", "value": "< 0.5", "unit": "µM"}, {"measurement": "MIC", "setting": "M. absescus", "value": "< 0.5", "unit": "µM"}, {"measurement": "MIC", "setting": "M. absescus; Feature 15", "value": "< 0.5", "unit": "µM"}]}, {"smiles": "COc1ccc(C(C(=O)NCc2ccccc2)N(Cc2ccccc2)C(=O)c2cn(C3OC(CO)C(O)C(O)C3NC(C)=O)nn2)cc1", "note": "(stereo not drawn) [BI.abcb]", "values": [{"measurement": "nature of antibacterial action", "setting": "B. cereus; colony counts similar to controls", "value": "bacteriostatic"}, {"measurement": "Colony counts for growth in the presence of compound", "setting": "B. cereus; inhibitor at the MIC, 4 hours", "value": "7.00±1.70×10^8 cfu mL^−1"}, {"measurement": "MIC", "setting": "Bacillus cereus", "value": 60, "unit": "µM"}]}, {"smiles": "CC1=N[C@@H]2[C@@H](O)[C@H](O)[C@@H](CO)O[C@@H]2S1", "note": "[NAG thiazoline]", "values": [{"measurement": "effect on E. coli cells", "setting": "E. coli", "value": "formation of shorter cells without affecting cell viability"}, {"measurement": "minimum inhibitory concentration in whole cell assays", "setting": "Gram-negative bacteria", "value": "do not demonstrate a measurable minimum inhibitory concentration"}]}, {"smiles": "CC(=O)N[C@H]1[C@H](O[C@H]2C[C@@H](C(=O)NCCS(=O)(=O)O)N[C@@H]2CO)O[C@H](CO)[C@@H](OS(=O)(=O)O)[C@@H]1O", "note": "[bulgecin A]", "values": [{"measurement": "minimum inhibitory concentration in whole cell assays", "setting": "Gram-negative bacteria", "value": "do not demonstrate a measurable minimum inhibitory concentration"}]}]}
